# Measurements reported in article PMC8073230, “Development and Verification of a Precolumn Derivatization LC-MS/MS Method for the Pharmacokinetic Study of Houttuynine of Houttuynia Essential Oil” (Molecules, 2021).
# Assay: Pharmacokinetic study of Hou in rats after single administration of HEO (LC-MS/MS, non-compartmental model)
# Format: in vivo, rat
# Settings: for AUC(0–t) / AUC(0–∞) / C max / T 1/2 / T max / V z: Hou in rat plasma after single administration of HEO; for AUC(0–t) / AUC(0–∞) / C max / T 1/2 / T max / V z / MRT(0–t): n = 6; for MRT(0–t): Hou in rat plasma after HEO
# Protocol: The pharmacokinetics of HEO administrated to rat via gavage and injection were evaluated based on the determination of Hou blood concentration by the established LC-MS/MS approach. Furthermore, the parameters of the pharmacokinetics were calculated by a non-compartmental model using the Drug and Statistics Software (DAS), version 3.2.8.
# Twelve male SD rats (200 ± 30 g) were kept in an appropriate environment for three days before the start of the experiment. Before drug administration, the rats were fasted except for free water access for 12 h. All animals were randomly divided into two groups with six animals in each group. Blood samples (0.2 mL) were withdrawn at specific time intervals (0 h, 5 min, 10 min, 15 min, 30 min, 1 h, 2 h, 3 h, 4 h, 6 h, 8 h, 12 h, and 24 h) after administration in heparinized tubes. The samples were immediately centrifuged at 3000 rpm, and kept at −20 °C in a refrigerator.
# Plasma samples (100 μL) were mixed with 100 μL of DNPH (2 mg/mL), 50 μL of IS (PTD, 200 µg/mL), and 150 μL acetonitrile (containing 2% HCl) with uniform mixing, followed by vigorous vortexing for 3 min to precipitate the protein. Then, all samples were shaken in a water bath oscillator for 15 min at 45 °C. The solutions were then centrifuged. The centrifugation step was repeated once, and plasma samples of Hou were obtained and subjected to LC-MS/MS analysis.
# Pharmacokinetic parameters including AUC (0–t), AUC (0–∞), MRT (0–t), MRT (0–∞), CLz and so on, were calculated using the DAS (version 3.2.8, Chinese Pharmacological Association, Beijing, China). The Cmax was obtained from the concentration–time curve. The area under the plasma concentration–time curve from zero to the time of the last measurable sample AUC (0–t)), area under the plasma concentration–time curve from zero to infinity AUC (0−∞), mean residence time from zero to the time of the last measurable sample (MRT0−t), mean residence time from zero to the time of infinity (MRT0−∞), and CLz were calculated using the DAS.
substance,measurement,setting,value
3-oxo-dodecanal [Hou],F (absolute bioavailability),"Hou after HEO, gavage (oral administration)",7.08%
same,F,"Hou after HEO, injection (reference route)",100%
same,AUC(0–t),gavage,2451.79 ± 300.01 µg·h/L
same,AUC(0–∞),gavage,2451.837 ± 432.74 µg·h/L
same,C max,gavage,222.48 ± 20.38 ng/mL
same,T 1/2,gavage,6.45 ± 0.94 h
same,T max,gavage,3.71 ± 1.07 h
same,V z,gavage,85.81 ± 5.74 L/kg
same,AUC(0–t),injection,"32,693.2 ± 1320 μg/L × h"
same,AUC(0–∞),injection,"34,630.466 ± 1436 μg/L × h"
same,C max,injection,2010 ± 350 ng/mL
same,T 1/2,injection,5.987 ± 0.52 h
same,T max,injection,0.033 ± 0.012 h
same,V z,injection,5.611 ± 0.97 L/kg
same,maximum plasma concentration (Cmax),"Hou in rats after HEO, oral administration",222.48 ng/mL
same,MRT(0–t),"first MRT line (r8), gavage",8.914 ± 2.73 h
same,MRT(0–t),"first MRT line (r8), injection",7.575 ± 1.21 h
same,MRT(0–t),"second MRT line (r9), gavage",11.594 ± 1.85 h
same,MRT(0–t),"second MRT line (r9), injection",9.153 ± 0.98 h
